Test results taken from ChEMBL document CHEMBL4602697 (J Med Chem, 2020).
Each block holds one compound with its values, some of them ahead of it.

Experiments:
[1] = biological target: Muscarinic receptor M2 and M3 (Rattus norvegicus) (UniProt P08483+P10980); experiment: Ratio of Ki for displacement of [3H]-QNB from Wistar rat heart muscarinic M2 receptor to Ki for displacement of [3H]-NMS from Wistar rat salivary gland muscarinic M3 receptor; assay type: protein assay
[2] = biological target: T1, Muscarinic acetylcholine receptor M2 (Rattus norvegicus, UniProt P10980); experiment: Displacement of [3H]-QNB from Wistar rat heart muscarinic M2 receptor
T1 sequence (P10980 whole entry): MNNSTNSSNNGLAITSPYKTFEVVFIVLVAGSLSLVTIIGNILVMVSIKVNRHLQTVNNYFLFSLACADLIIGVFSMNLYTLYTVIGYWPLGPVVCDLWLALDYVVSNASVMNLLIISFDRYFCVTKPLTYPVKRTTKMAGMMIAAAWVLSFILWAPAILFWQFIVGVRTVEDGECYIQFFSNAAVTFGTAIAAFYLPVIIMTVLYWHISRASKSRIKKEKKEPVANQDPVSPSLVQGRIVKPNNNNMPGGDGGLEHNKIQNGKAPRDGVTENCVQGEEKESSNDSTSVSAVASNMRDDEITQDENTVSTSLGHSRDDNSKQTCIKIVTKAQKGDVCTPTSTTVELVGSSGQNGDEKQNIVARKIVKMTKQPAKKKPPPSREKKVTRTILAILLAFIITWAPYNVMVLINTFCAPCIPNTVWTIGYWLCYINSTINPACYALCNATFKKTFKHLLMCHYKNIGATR

Rattus norvegicus = species on record: Rattus norvegicus; experiment: Ratio of Ki for displacement of [3H]pirenzepin from Wistar rat cortex muscarinic M1 receptor to Ki for displacement of [3H]-NMS from Wistar rat salivary gland muscarinic M3 receptor
[3] = biological target: T2, Muscarinic acetylcholine receptor M1 (Rattus norvegicus, UniProt P08482); experiment: Displacement of [3H]pirenzepin from Wistar rat cortex muscarinic M1 receptor
T2 sequence (P08482 whole entry): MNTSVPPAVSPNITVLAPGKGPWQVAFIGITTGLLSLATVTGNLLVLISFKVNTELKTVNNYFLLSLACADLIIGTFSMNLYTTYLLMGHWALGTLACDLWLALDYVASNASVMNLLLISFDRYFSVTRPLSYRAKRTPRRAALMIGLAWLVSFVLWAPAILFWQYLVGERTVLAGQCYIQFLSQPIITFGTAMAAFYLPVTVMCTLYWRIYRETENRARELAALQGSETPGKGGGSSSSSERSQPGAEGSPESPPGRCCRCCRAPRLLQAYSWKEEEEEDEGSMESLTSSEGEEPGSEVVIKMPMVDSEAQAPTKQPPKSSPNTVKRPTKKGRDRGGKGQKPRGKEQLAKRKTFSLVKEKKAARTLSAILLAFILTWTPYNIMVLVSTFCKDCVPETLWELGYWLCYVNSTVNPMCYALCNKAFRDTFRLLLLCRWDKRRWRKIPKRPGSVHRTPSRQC

[4] = biological target: Muscarinic acetylcholine receptor M3 (Rattus norvegicus, UniProt P08483); experiment: Displacement of [3H]-NMS from Wistar rat salivary gland muscarinic M3 receptor
[5] = Metabolic stability in Sprague-Dawley rat liver microsomes assessed as parent compound remaining at 20 uM measured for 120 mins by HPLC/MS analysis relative to control; assay type: ADME, Microsome; settings: read-out: Stability
[6] = Permeability across basolateral to apical side in human Caco2 cells coexpressing Pgp at 5 uM in presence of P-gp inhibitor valspodar measured for 3 hrs by UPLC/MS analysis; assay type: ADME, cell-based; settings: caco-2, 3 h
[7] = Permeability across apical to basolateral side in human Caco2 cells coexpressing Pgp at 5 uM in presence of P-gp inhibitor valspodar measured for 3 hrs by UPLC/MS analysis; assay type: ADME, cell-based; settings: caco-2, 3 h
[8] = Permeability across apical to basolateral side in human Caco2 cells coexpressing Pgp at 5 uM measured for 3 hrs by UPLC/MS analysis relative to control; assay type: ADME, cell-based; settings: caco-2, 3 h
[9] = Permeability across basolateral to apical side in human Caco2 cells coexpressing Pgp at 5 uM measured for 3 hrs by UPLC/MS analysis relative to control; assay type: ADME, cell-based; settings: caco-2, 3 h

Muscarinic acetylcholine receptor M3, sequence (P08483 whole entry): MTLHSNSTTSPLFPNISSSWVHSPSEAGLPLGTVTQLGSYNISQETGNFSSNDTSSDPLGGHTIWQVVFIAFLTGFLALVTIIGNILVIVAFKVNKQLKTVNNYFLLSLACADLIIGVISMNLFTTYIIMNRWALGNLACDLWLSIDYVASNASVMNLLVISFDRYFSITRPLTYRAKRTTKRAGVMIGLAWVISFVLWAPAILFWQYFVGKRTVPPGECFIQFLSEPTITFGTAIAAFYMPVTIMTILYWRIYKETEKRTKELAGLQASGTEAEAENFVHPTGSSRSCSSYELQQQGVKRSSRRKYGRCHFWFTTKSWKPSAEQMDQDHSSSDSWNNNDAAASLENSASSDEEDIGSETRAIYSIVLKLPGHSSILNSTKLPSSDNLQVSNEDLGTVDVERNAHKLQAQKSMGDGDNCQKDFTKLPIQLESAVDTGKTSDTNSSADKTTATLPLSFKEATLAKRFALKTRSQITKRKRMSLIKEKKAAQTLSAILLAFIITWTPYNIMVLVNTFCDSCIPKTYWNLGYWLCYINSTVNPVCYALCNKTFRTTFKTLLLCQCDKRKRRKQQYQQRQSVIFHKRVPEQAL
Muscarinic receptor M2 and M3 (Rattus norvegicus), sequence (P08483 whole entry, looked up, one chain of several): as the sequence (P08483 whole entry) above

Structure (SMILES): C[N+]12CCC(CC1)[C@@H](OC(=O)Nc1ccc(F)cc1-c1cccc(Cl)c1)C2
remaining at 2 h, 20 µM [5]: 65%

Structure (SMILES): C[N+]12CCC(CC1)[C@@H](OC(=O)Nc1ccc(F)cc1-c1ccc(F)c(Cl)c1)C2
remaining at 2 h, 20 µM [5]: 63%

Structure (SMILES): O=C(Nc1ccccc1-c1ccccc1)O[C@H]1CN2CCC1CC2
Ki [2]: 7.6 nM
Ki [3]: 0.65 nM
Ki [4]: 0.47 nM

Results, then the compound that gave them:

Ratio Ki [1]: 10
Ki [2]: 270 nM
Ratio Ki (Rattus norvegicus): 1.2
Ki [3]: 32 nM
Ki [4]: 27 nM
Structure (SMILES): O=C(Nc1ccccc1-c1ccccc1)OC1CCNCC1

remaining at 2 h, 20 µM [5]: 53%
Structure (SMILES): O=C(Nc1ccc(F)cc1-c1cccc(Cl)c1)OCC1CCNCC1

remaining at 2 h, 20 µM [5]: 74%
Structure (SMILES): O=C(Nc1ccc(F)cc1-c1ccc(F)c(Cl)c1)OCC1CCNCC1

permeability [6]: 10.5%
permeability [7]: 10.2%
permeability [8]: 6.7%
permeability [9]: 19.9%
Structure (SMILES): C[C@H]1O[C@@H](O[C@H]2[C@@H](O)C[C@H](O[C@H]3[C@@H](O)C[C@H](O[C@H]4CC[C@@]5(C)[C@H](CC[C@@H]6[C@@H]5C[C@@H](O)[C@]5(C)[C@@H](C7=CC(=O)OC7)CC[C@]65O)C4)O[C@@H]3C)O[C@@H]2C)C[C@H](O)[C@@H]1O [DIGOXIN]
